Laboratory results: ChEMBL document CHEMBL5579806, “Re-exploration of tetrahydro-β-carboline scaffold: Discovery of selective histone deacetylase 6 inhibitors with neurite outgrowth-promoting and neuroprotective activities” (Bioorg Med Chem Lett, 2024)
The source made the active and inactive calls. No cut-off for these calls is given here.

Key:
[1] = biological target: T1, Protein deacetylase HDAC6 (Homo sapiens, UniProt Q9UBN7); experiment: Inhibition of human HDAC6 using RHKKAc as substrate by fluorescence based assay
T1 sequence (Q9UBN7 whole entry): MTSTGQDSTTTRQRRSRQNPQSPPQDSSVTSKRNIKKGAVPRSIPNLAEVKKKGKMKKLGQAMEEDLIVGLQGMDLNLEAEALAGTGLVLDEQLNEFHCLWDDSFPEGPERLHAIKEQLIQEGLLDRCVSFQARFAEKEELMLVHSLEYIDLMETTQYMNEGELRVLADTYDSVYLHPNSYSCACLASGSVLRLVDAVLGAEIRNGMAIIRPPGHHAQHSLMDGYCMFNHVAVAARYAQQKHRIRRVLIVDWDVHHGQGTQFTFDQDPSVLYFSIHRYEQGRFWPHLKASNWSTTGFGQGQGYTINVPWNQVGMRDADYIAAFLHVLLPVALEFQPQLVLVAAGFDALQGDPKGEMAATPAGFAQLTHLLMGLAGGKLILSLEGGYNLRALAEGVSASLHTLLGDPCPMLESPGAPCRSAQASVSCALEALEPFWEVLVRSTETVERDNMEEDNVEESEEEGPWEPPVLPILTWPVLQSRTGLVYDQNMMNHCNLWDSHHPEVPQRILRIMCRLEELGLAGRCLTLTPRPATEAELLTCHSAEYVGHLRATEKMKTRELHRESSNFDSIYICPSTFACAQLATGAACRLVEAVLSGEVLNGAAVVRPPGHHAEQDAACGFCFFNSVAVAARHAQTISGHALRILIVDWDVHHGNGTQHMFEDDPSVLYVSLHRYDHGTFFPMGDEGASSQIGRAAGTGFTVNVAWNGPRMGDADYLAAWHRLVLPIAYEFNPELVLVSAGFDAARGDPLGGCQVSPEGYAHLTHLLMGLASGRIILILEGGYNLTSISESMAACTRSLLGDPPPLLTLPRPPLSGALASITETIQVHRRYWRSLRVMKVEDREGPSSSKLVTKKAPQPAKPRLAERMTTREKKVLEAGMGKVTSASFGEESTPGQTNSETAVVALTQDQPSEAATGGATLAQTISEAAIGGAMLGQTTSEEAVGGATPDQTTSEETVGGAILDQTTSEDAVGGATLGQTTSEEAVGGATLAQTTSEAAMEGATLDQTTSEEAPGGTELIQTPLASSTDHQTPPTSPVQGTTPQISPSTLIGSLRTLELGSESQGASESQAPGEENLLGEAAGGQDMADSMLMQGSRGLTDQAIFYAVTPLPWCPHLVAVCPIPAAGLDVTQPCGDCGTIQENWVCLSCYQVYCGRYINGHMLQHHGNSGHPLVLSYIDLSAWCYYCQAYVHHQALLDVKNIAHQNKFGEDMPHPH

[2] = species: Homo sapiens; experiment: Selectivity index, ratio of IC50 for inhibition of human HDAC1 to IC50 for inhibition of human HDAC6
[3] = tested on: PC-12; experiment: Neuroprotective activity against H2O2-induced oxidative stress in rat PC-12 cells assessed as increase in cell viability at 5 uM incubated for 24 hrs; format: functional, cell-based
[4] = tested on: PC-12; experiment: Induction of neurite outgrowth in NGF-induced rat PC-12 cells assessed as increase in percentage of neurite bearing cells at 3 uM relative to control; format: functional
[5] = biological target: Histone deacetylase 1 (Homo sapiens, UniProt Q13547); experiment: Inhibition of human HDAC1 using RHKKAc as substrate by fluorescence based assay
[6] = Neurotoxicity in rat PC-12 cells at 1 to 10 uM; format: toxicity, cell-based; details: pc-12, 10 µM, dose 1-10 µM
[7] = tested on: PC-12; experiment: Neuroprotective activity against H2O2-induced oxidative stress in rat PC-12 cells assessed as cell viability at 5 uM incubated for 24 hrs (reference value: 62.5 %); format: functional; details: read-out: Activity
[8] = tested on: PC-12; experiment: Induction of neurite outgrowth in NGF-induced rat PC-12 cells; format: functional, cell-based; details: dose 1-10 µM
[9] = biological target: Histone deacetylase 3/Nuclear receptor corepressor 2 (HDAC3/NCoR2) (Homo sapiens, UniProt O15379); experiment: Inhibition of human HDAC3/NCOR2 using RHKKAc as substrate by fluorescence based assay; format: protein-complex assay
[10] = biological target: Histone deacetylase 5 (Homo sapiens, UniProt Q9UQL6); experiment: Inhibition of human HDAC5 using Boc-Lys(trifluoroacetyl)-AMC as substrate by fluorescence based assay
[11] = biological target: Histone deacetylase 2 (Homo sapiens, UniProt Q92769); experiment: Inhibition of human HDAC2 using RHKKAc as substrate by fluorescence based assay
[12] = biological target: T2, Histone deacetylase 8 (Homo sapiens, UniProt Q9BY41); experiment: Inhibition of human HDAC8 using RHK(Ac)-K(Ac) as substrate by fluorescence based assay
T2 sequence (Q9BY41 whole entry): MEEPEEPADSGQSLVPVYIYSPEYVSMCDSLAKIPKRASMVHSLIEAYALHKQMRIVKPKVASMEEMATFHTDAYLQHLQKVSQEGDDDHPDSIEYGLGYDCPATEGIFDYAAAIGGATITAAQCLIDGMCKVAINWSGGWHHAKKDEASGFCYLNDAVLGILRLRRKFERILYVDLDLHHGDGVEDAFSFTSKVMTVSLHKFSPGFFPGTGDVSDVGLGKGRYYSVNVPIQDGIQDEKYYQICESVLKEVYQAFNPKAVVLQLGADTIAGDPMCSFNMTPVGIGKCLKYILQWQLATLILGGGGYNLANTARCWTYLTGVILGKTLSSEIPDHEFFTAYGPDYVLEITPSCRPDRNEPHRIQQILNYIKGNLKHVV

[13] = tested on: PC-12; experiment: Inhibition of HDAC6 in rat PC-12 cells assessed as increase in alpha-tubulin acetylation incubated for 24 hrs by Western blot analysis; format: cell-based; details: dose 0.1-1 µM

Sequence of Histone deacetylase 1 (Q13547 whole entry): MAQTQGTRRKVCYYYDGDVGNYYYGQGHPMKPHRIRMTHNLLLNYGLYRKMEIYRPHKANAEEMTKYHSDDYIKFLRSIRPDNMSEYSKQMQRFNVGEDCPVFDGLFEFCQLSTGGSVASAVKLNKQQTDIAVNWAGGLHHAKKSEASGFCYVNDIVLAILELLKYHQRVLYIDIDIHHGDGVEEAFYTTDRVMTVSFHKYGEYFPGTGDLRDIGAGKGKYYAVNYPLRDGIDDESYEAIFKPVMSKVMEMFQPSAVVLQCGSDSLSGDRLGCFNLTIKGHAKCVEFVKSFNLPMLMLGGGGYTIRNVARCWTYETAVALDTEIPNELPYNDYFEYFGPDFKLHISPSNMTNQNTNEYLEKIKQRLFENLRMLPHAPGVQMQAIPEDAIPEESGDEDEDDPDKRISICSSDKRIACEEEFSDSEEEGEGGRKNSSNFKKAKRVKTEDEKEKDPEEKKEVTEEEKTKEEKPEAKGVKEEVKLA
Sequence of Histone deacetylase 2 (Q92769 whole entry): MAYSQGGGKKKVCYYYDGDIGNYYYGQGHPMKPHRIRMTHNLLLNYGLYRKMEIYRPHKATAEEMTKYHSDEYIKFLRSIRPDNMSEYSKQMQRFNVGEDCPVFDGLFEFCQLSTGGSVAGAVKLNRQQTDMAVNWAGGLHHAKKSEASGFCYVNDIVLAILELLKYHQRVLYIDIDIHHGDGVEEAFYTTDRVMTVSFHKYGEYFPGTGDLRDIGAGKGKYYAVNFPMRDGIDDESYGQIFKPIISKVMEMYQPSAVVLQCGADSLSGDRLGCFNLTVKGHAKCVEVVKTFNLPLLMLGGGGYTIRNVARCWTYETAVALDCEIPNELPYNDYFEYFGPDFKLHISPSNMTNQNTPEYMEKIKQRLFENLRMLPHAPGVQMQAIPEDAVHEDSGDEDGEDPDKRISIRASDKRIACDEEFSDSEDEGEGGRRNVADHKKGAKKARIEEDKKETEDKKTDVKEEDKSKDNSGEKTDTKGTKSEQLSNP
Sequence of Histone deacetylase 3/Nuclear receptor corepressor 2 (HDAC3/NCoR2) (O15379 whole entry): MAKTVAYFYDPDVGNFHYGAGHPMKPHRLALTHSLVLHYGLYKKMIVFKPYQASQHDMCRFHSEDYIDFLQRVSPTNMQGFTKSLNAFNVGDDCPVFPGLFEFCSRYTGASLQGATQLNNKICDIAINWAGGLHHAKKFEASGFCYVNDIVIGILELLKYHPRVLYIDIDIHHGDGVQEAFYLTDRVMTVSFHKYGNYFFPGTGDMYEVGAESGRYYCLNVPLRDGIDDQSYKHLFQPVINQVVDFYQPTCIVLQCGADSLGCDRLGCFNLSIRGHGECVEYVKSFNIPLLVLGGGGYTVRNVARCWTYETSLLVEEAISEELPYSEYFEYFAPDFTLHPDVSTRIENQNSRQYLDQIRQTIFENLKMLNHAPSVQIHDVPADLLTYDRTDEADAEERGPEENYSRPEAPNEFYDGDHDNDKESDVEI
Sequence of Histone deacetylase 3/Nuclear receptor corepressor 2 (HDAC3/NCoR2) (Q9Y618 whole entry, further chain): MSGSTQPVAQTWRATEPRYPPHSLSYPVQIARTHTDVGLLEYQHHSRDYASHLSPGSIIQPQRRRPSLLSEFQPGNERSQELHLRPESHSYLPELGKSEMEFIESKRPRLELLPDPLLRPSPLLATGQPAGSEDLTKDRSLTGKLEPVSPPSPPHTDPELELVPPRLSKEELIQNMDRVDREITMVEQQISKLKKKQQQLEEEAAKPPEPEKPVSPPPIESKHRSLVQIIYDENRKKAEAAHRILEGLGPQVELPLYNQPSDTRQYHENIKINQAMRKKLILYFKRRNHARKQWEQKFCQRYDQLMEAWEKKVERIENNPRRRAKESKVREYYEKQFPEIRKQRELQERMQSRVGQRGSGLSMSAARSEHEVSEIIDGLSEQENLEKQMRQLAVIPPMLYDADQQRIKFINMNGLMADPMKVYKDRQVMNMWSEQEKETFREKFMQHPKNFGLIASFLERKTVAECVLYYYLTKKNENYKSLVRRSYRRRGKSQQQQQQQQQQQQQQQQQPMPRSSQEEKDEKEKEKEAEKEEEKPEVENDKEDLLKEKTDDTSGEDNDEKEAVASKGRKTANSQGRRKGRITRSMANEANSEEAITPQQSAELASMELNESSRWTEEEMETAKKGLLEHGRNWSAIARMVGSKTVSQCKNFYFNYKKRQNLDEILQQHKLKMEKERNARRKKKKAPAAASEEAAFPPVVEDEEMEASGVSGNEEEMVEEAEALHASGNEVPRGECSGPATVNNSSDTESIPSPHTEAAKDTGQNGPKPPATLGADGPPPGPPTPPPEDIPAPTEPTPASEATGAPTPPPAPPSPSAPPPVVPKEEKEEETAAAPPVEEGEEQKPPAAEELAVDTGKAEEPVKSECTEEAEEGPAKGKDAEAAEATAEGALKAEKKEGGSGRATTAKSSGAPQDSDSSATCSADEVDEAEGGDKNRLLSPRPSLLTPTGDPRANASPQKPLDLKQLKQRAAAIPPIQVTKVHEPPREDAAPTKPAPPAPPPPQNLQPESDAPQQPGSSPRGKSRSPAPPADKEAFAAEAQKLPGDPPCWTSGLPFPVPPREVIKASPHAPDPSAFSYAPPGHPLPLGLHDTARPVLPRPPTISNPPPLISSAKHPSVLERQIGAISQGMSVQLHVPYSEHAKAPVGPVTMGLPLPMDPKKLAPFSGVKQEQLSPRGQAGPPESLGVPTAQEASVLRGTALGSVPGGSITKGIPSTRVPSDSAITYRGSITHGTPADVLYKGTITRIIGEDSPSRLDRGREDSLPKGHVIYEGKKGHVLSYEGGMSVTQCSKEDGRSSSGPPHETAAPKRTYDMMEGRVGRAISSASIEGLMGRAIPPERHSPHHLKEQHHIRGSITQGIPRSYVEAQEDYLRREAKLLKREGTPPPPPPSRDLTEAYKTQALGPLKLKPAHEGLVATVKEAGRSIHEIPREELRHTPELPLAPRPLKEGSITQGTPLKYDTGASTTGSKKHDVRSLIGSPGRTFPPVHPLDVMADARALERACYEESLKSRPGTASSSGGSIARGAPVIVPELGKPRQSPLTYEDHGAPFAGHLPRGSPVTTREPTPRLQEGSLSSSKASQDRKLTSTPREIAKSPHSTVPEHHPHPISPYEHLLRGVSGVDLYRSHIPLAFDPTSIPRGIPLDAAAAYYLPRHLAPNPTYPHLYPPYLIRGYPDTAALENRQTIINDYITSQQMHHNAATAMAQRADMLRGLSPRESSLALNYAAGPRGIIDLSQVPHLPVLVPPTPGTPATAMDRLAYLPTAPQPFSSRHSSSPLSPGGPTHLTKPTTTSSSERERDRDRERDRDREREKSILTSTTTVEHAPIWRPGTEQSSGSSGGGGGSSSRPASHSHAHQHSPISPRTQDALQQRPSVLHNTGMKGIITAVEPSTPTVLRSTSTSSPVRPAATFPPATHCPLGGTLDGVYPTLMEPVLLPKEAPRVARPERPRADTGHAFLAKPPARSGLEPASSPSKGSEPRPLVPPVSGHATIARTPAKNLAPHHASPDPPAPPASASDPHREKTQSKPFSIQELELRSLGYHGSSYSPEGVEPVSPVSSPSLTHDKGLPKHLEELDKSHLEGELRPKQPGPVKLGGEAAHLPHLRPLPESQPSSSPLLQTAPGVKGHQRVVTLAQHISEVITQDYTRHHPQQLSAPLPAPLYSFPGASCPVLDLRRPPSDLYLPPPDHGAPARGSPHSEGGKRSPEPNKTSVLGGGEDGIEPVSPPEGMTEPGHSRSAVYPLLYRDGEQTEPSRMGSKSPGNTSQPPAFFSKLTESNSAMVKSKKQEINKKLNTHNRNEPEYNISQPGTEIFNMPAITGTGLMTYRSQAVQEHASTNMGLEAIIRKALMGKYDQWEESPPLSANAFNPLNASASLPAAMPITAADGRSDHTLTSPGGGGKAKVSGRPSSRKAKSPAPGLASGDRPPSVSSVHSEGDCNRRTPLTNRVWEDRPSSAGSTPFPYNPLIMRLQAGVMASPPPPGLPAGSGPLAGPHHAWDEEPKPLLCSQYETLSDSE
Sequence of Histone deacetylase 5 (Q9UQL6 whole entry): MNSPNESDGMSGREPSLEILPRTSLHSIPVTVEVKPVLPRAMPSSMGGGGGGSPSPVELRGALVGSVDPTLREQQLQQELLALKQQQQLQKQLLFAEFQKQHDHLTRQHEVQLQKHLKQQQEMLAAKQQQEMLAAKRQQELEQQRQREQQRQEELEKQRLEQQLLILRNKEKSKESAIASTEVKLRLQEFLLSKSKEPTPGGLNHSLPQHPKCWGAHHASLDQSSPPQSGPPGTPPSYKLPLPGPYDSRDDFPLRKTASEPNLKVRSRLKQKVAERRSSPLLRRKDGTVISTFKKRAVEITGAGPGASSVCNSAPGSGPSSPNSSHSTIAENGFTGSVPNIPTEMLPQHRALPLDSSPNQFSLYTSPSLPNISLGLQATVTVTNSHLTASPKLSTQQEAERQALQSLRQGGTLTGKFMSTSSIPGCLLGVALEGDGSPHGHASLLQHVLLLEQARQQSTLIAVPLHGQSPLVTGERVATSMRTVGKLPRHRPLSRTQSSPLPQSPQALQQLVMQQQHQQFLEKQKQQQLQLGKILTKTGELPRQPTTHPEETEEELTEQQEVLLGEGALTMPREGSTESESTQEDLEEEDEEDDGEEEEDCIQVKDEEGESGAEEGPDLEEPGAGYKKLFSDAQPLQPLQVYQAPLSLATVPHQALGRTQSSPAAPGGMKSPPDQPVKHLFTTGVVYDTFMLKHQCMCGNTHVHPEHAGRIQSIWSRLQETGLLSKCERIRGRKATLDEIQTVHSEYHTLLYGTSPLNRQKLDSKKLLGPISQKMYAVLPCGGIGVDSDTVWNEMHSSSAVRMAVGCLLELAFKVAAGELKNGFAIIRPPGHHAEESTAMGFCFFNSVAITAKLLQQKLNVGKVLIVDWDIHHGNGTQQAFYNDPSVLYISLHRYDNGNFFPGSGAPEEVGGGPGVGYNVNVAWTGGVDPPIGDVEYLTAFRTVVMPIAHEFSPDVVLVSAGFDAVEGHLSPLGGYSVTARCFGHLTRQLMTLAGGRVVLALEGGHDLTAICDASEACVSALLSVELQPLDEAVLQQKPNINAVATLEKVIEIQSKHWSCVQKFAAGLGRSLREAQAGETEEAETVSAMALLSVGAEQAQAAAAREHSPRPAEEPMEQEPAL

SMILES | IC50 [1] | Ratio IC50 [2] | IC50 [5] | IC50 [9] | IC50 [10] | IC50 [11] | IC50 [12] | Activity [3] | Activity [4] | Activity [6] | viability at 5 µM [7] | Activity [8] | inhibition [13]
O=C(NO)c1ccc(CNC(=O)[C@@H]2Cc3c([nH]c4ccccc34)[C@@H](C3CCCC3)N2)cc1 | 4.54 nM | 45 | 204 nM | – | – | – | – | inactive | 23.3% | – | – | – | –
O=C(NO)c1ccc(CNC(=O)[C@@H]2Cc3c([nH]c4ccccc34)[C@@H](C3CC3)N2)cc1 | 3.25 nM | 36 | 118 nM | – | – | – | – | inactive | 23.3% | – | – | – | –
O=C(NO)c1ccc(CNC(=O)[C@@H]2Cc3c([nH]c4ccccc34)[C@@H](C3CC3)N2Cc2ccccc2)cc1 | 12.7 nM | 134 | 1700 nM | – | – | – | – | – | 23.3% | – | > 85% | Dose-Dependent Effect | –
CN1CCc2c(c3ccccc3n2Cc2ccc(C(=O)NO)cc2)C1 [TUBASTATIN A] | – | – | – | – | – | – | – | – | 26.7% | – | 77.6% | – | –
COc1ccc(CN2[C@H](C(=O)NCc3ccc(C(=O)NO)cc3)Cc3c([nH]c4ccccc34)[C@H]2C2CC2)cc1 | – | – | – | – | – | – | – | – | 23.3% | – | > 85% | Dose-Dependent Effect | –
O=C(NO)c1ccc(CNC(=O)[C@@H]2Cc3c([nH]c4ccccc34)[C@@H](c3ccc(Cl)cc3)N2CC2CC2)cc1 | – | – | 1280 nM | 1660 nM | > 10 µM | 1440 nM | > 10 µM | – | 47.1% | – | 99.6% | Dose-Dependent Effect | Dose-Dependent Effect
O=C(NO)c1ccc(CNC(=O)[C@@H]2Cc3c([nH]c4ccccc34)[C@@H](C3CC3)N2Cc2ccc(Cl)cc2)cc1 | 11.2 nM | 155 | 1740 nM | – | – | – | – | – | 23.3% | – | 92.5% | Dose-Dependent Effect | –
COc1ccc(CN2[C@H](C)c3[nH]c4ccccc4c3C[C@H]2C(=O)NCc2ccc(C(=O)NO)cc2)cc1 | 34.2 nM | – | > 10000 nM | – | – | – | – | – | – | – | – | – | –

Further lines, with some results ahead:

IC50 [1] | Ratio IC50 [2] | IC50 [5] | IC50 [9] | IC50 [10] | IC50 [11] | IC50 [12] | SMILES | Activity [3] | Activity [4] | Activity [6] | viability at 5 µM [7] | Activity [8] | inhibition [13]
2 nM | 108 | 216 nM | – | – | – | – | O=C(NO)c1ccc(CNC(=O)[C@@H]2Cc3c([nH]c4ccccc34)[C@@H](c3ccc4c(c3)OCO4)N2)cc1 | inactive | 46.4% | Toxic | – | – | –
5.61 nM | 137 | 770 nM | – | – | – | – | O=C(NO)c1ccc(CNC(=O)[C@@H]2Cc3c([nH]c4ccccc34)[C@@H](c3ccc(Cl)cc3)N2)cc1 | inactive | 23.3% | – | – | – | –
– | – | 390 nM | – | – | – | – | COc1ccc([C@H]2N[C@H](C(=O)NCc3ccc(C(=O)NO)cc3)Cc3c2[nH]c2ccccc32)cc1OC | inactive | 23.3% | – | – | – | –
5.3 nM | 140 | 742 nM | – | – | – | – | O=C(NO)c1ccc(CNC(=O)[C@@H]2Cc3c([nH]c4ccccc34)[C@@H](c3ccccc3)N2)cc1 | inactive | 23.3% | – | – | – | –
